What was measured:
[1] = test system: MDA-MB-435 xenografts (human mammary tumour); assay: NCI human xenograft study; type: in vivo, mice
Description: (§1) These are carried out on nucle athymic mice with a disabled immune system. The human tumour tissue to be tested is implanted in their flanks, and whilst the control mouse receives no treatment, the others are subjected to varying doses of the test compound, which is administered intraperitoneally. The results are expressed as the toxicity of the compound, the amount of tumour growth, and the inhibition of growth.
(§2) Athymic nude mice bearing MDA-MB-435 xenografts (human mammary tumour), Ovcar-3 (human ovarian tumour), UACC-62 (human melanoma) or OVCAR-5 (human ovarian tumour) were treated at doses of 0.67 (high), 0.45 (middle) and 0.3 (low) mg/kg/injection given once every 4th day for a total of 3 doses (6 mice per dose level with 20 controls).
(§3) UP2001 (80) was evaluated by measuring the toxicity of the drug and its ability to retard tumour growth.
(§4) Toxicity represents the number of mice which died as a result of treatment. % T/C represents the width of the tumours in the “test” mice (T) (as measured with calipers) compared to control untreated mice (C) and presented as a percentage. % Growth Delay represents the increase in the amount of time taken for the tumors to reach an arbitrary size of 250 mg.

[2] = test system: OVCAR-5 (human ovarian tumour); assay: NCI human xenograft study; type: in vivo, mice
Description: as §1, §2, §3, §4

[3] = test system: Ovcar-3 (human ovarian tumour); assay: NCI human xenograft study; type: in vivo, mice
Description: as §1, §2, §3, §4

UACC-62 (human melanoma) = assay: NCI human xenograft study; type: in vivo, mice
Description: as §1, §2, §3, §4

calf thymus DNA = assay: DNA helix melting temperature assay; type: binding
Description: The first assay, which is described in G. B. Jones, et al., Anti-Cancer Drug Des., 1990, 5, 249, which is incorporated herein by reference, determines the effect of the test compound on the helix melting temperature of DNA. This assay is designed to give an indication of the strength and extent of cross-linking of the DNA strands by the test compound (i.e. a measure of the stabilisation of the DNA upon ligand binding).
The melting temperature was determined for a 1:5 molar ratio of [ligand] [DNA], where the calf thymus DNA concentration is […] in aqueous sodium phosphate buffer (10 mM sodium phosphate+1 mM EDTA, pH 7.00±0.01). For calf thymus DNA at pH 7.00±0.01, the melting temperature is 67.83±0.06° C. (mean value from 30 separate determinations).

[4] = test system: human ovarian carcinoma cell line A2780; assay: Cytotoxicity in A2780 (Example 9); type: cell-based
Description: Relative to the parental line, the A2780cisR subline is known to have elevated GSH levels, an increased level of repair of DNA-cisplatin adducts, and a decreased ability to uptake cisplatin (M. Smellie, et al., Br. J. Cancer, 1994, 70, 48).
The results, which were obtained by incubating the cells with the compounds for 96 hours at 37° C., and assessing the cell number using Sulforhodamine B, are presented in the table below: […]

CH1cisR = assay: Ovarian carcinoma cytotoxicity assay; type: cell-based; conditions: Homo sapiens, CH1cisR, 96 h, read-out: IC50 CH1cisR
Summary of the method: (§5)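 Cells attached overnight, then read 96 hours later by sulphorhodamine B staining of TCA-fixed cells, with absorbance at 540 nm. IC50 taken from concentration versus % absorbance relative to untreated wells; cisR lines are cisplatin-resistant.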

CH1 = assay: Ovarian carcinoma cytotoxicity assay; type: cell-based; conditions: Homo sapiens, CH1, 96 h, read-out: IC50 CH1
Summary of the method: as §5

SKOV-3 = assay: Ovarian carcinoma cytotoxicity assay; type: cell-based; conditions: Homo sapiens, SK-OV-3, 96 h, read-out: IC50 Skov3
Summary of the method: as §5

[5] = MDA-MB-435 xenografts, dose not given
[6] = 0.3 mg/kg/injection once every 4th day, 3 doses
[7] = 0.3 mg/kg/injection once every 4th day, 3 doses, mice which died as a result of treatment
[8] = 0.3 mg/kg/injection, time for tumours to reach 250 mg
[9] = 0.45 mg/kg/injection once every 4th day, 3 doses
[10] = 0.45 mg/kg/injection once every 4th day, 3 doses, mice which died as a result of treatment
[11] = 0.45 mg/kg/injection, time for tumours to reach 250 mg
[12] = 0.67 mg/kg/injection once every 4th day, 3 doses
[13] = 0.67 mg/kg/injection once every 4th day, 3 doses, mice which died as a result of treatment
[14] = 0.67 mg/kg/injection, time for tumours to reach 250 mg

## C=C1C[C@H]2C=Nc3cc(OCCCOc4cc5c(cc4OC)C(=O)N4CC(=C)C[C@H]4C=N5)c(OC)cc3C(=O)N2C1 [UP2001 (80)]
[1]; MDA-MB-435, 0.3 mg/kg/injection once every 4th day, 3 doses
  % T/C Low: 3%
[1]; MDA-MB-435, 0.3 mg/kg/injection once every 4th day, 3 doses, mice which died as a result of treatment
  Toxicity Low: 2/6
[1]; MDA-MB-435, 0.3 mg/kg/injection, time for tumours to reach 250 mg
  % Growth Delay Low: 41%
[1]; MDA-MB-435, 0.45 mg/kg/injection once every 4th day, 3 doses
  % T/C Mid: 3%
[1]; MDA-MB-435, 0.45 mg/kg/injection once every 4th day, 3 doses, mice which died as a result of treatment
  Toxicity Mid: 1/6
[1]; MDA-MB-435, 0.45 mg/kg/injection, time for tumours to reach 250 mg
  % Growth Delay Mid: 41%
[1]; MDA-MB-435, 0.67 mg/kg/injection once every 4th day, 3 doses
  % T/C High: toxic
[1]; MDA-MB-435, 0.67 mg/kg/injection once every 4th day, 3 doses, mice which died as a result of treatment
  Toxicity High: 3/6
[1]; MDA-MB-435, 0.67 mg/kg/injection, time for tumours to reach 250 mg
  % Growth Delay High: 41%
[1]; [5]
  delay in the time taken to reach tumour mass of 250 mg: 41%
  tumour growth in treated mice as % of the tumour growth in the control population: 3%
[2]; OVCAR-5, 0.3 mg/kg/injection once every 4th day, 3 doses
  % T/C Low: 38%
[2]; OVCAR-5, 0.3 mg/kg/injection once every 4th day, 3 doses, mice which died as a result of treatment
  Toxicity Low: 0/6
[2]; OVCAR-5, 0.3 mg/kg/injection, time for tumours to reach 250 mg
  % Growth Delay Low: 32%
[2]; OVCAR-5, 0.45 mg/kg/injection once every 4th day, 3 doses
  % T/C Mid: 45%
[2]; OVCAR-5, 0.45 mg/kg/injection once every 4th day, 3 doses, mice which died as a result of treatment
  Toxicity Mid: 0/6
[2]; OVCAR-5, 0.45 mg/kg/injection, time for tumours to reach 250 mg
  % Growth Delay Mid: 28%
[2]; OVCAR-5, 0.67 mg/kg/injection once every 4th day, 3 doses
  % T/C High: 52%
[2]; OVCAR-5, 0.67 mg/kg/injection once every 4th day, 3 doses, mice which died as a result of treatment
  Toxicity High: 0
[2]; OVCAR-5, 0.67 mg/kg/injection, time for tumours to reach 250 mg
  % Growth Delay High: 16%
[2]; OVCAR-5 xenografts, dose not given
  tumour size reduction: approximately 50%
[3]; [6]
  % T/C Low: 46%
[3]; [7]
  Toxicity Low: 0/6
[3]; [8]
  % Growth Delay Low: 9%
[3]; [9]
  % T/C Mid: 20%
[3]; [10]
  Toxicity Mid: 0/6
[3]; [11]
  % Growth Delay Mid: 73%
[3]; [12]
  % T/C High: 7%
[3]; [13]
  Toxicity High: 0/6
[3]; [14]
  % Growth Delay High: 73%
UACC-62 (human melanoma); [6]
  % T/C Low: 67%
UACC-62 (human melanoma); [7]
  Toxicity Low: 0/6
UACC-62 (human melanoma); [8]
  % Growth Delay Low: 43%
UACC-62 (human melanoma); [9]
  % T/C Mid: 28%
UACC-62 (human melanoma); [10]
  Toxicity Mid: 0/6
UACC-62 (human melanoma); [11]
  % Growth Delay Mid: 43%
UACC-62 (human melanoma); [12]
  % T/C High: 22%
UACC-62 (human melanoma); [13]
  Toxicity High: 0/6
UACC-62 (human melanoma); [14]
  % Growth Delay High: 43%
Calf thymus DNA; [PBD]:[DNA] ratio of 1:5, calf thymus DNA, pH 7.00, 0 h
  Induced ΔTa after incubation at 37° C. for 0 h: 25.7 °C
Calf thymus DNA; [PBD]:[DNA] ratio of 1:5, calf thymus DNA, pH 7.00, 4 h
  Induced ΔTa after incubation at 37° C. for 4 h: 31.9 °C
Calf thymus DNA; [PBD]:[DNA] ratio of 1:5, calf thymus DNA, pH 7.00, 18 h
  Induced ΔTa after incubation at 37° C. for 18 h: 33.6 °C
Calf thymus DNA; calf thymus DNA melting
  share of stabilising effect provided without prior incubation: 60-80%
Calf thymus DNA; on a concentration basis
  fold more effective than DSB-120 (comparative ΔTm curves): ≥ 10 fold
[4]; A2780 cell line
  fold increase in cytotoxicity compared to DSB-120: 320 fold
[4]; Homo sapiens, A2780, 96 h, read-out: IC50 A2780
  IC50: 0.023 nM
CH1cisR
  IC50: 0.6 nM
CH1
  IC50: 0.12 nM
SKOV-3
  IC50: 9.1 nM
